In US8530669B2, “Ester compound and use thereof” (Sumitomo Chemical Company, Limited, priority 2010, dated 2013):

Columns and labels:
[1] = test system: German cockroaches (Blattella germanica); test: Test Example 8: oil solution spray knock-down test on German cockroaches; assay type: in vivo; settings: adult German cockroaches, 1.5 ml of 0.00625% (w/v) oil solution sprayed, repeated once
Procedure: Zero point zero zero six two five (0.00625) part of the compound of the present inventions (1), (2), (3), (4) and (5) was dissolved in 10 parts of isopropyl alcohol and the solution was mixed with 89.99375 parts of deodorized kerosene to prepare a 0.00625% (w/v) oil solution.
Ten adult German cockroaches (Blattella germanica, 5 males and 5 females) were released in a test container (diameter 8.75 cm, 7.5 cm high, the bottom face is made of 16 mesh metallic wire), the inner face on which butter was applied, and the container was set at the bottom of a test chamber (bottom face: 46 cm×46 cm, height: 70 cm).
Each 1.5 ml of the oil solution of the compound of the present invention (1), (2), (3), (4) and (5) was sprayed using a spray gun at a pressure of 0.4 kg/cm^2 from 60 cm higher than the upper face of the container. Thirty seconds after the spraying, the container was pulled out from the chamber. Two minutes after spraying, the number of knocked-down cockroaches was counted and a knock-down ratio was determined (repeated once). A knocked-down ratio was calculated by the following equation. Knocked-down ratio(%)=(Number of knocked-down cockroaches/Number of test cockroaches)×100 The results (2 minutes after spraying) are shown in Table 5.

[2] = test system: American cockroaches (Periplaneta Americana); test: Test Example 1: oil solution spray knock-down test on American cockroaches; assay type: in vivo; settings: adult American cockroaches, 1.5 ml of 0.1% (w/v) oil solution sprayed, repeated twice
Procedure: (§1) Zero point one (0.1) part of the compound of the present inventions (1), (2) and (4) was dissolved in 10 parts of isopropyl alcohol and the solution was mixed with 89.9 parts of deodorized kerosene to prepare a 0.1% (w/v) oil solution.
(§2) Six adult American cockroaches (Periplaneta Americana, 3 males and 3 females) were released in a test container (diameter 12.5 cm, 10 cm high, the bottom face is made of 16 mesh metallic wire), the inner face on which butter was applied, and the container was set at the bottom of a test chamber (bottom face: 46 cm×46 cm, height: 70 cm). Each 1.5 ml of the oil solution of the compound of the present invention (1), (2) and (4) was sprayed using a spray gun at a pressure of 0.4 kg/cm^2 from 60 cm higher than the upper face of the container. Thirty seconds after the spraying, the container was pulled out from the chamber. After a prescribed time, the number of knocked-down cockroaches was counted and a knock-down ratio was determined (repeated twice). The knocked-down ratio was calculated by the following equation. Knocked-down ratio(%)=(Number of knocked-down cockroaches/Number of test cockroaches)×100
For comparison, the test was conducted in the same manner as the above, except for using 2,5-dioxo-3-(2-propynyl)imidazolidinylmethyl=(1R)-cis-3-((Z)-2-cyano-2-methoxyethenyl)-2,2-dimethylcyclopropane carboxylate (compound described in JP-A-60-16962, hereinafter referred to as the comparative compound (1)) represented by the following formula: […]

[3] = test system: common mosquitoes (Culex pipens pallens); test: Test Example 2: oil solution spray knock-down test on common mosquitoes in glass chamber; assay type: in vivo; settings: adult female Culex pipens pallens, 0.025% (w/v) oil solution sprayed into 70 cm cubic glass chamber, 1 minute after spraying
Procedure: Zero point zero two five (0.025) part of the compound of the present invention (1) and (4) was dissolved in 10 parts of isopropyl alcohol, and the solution was mixed with 89.975 parts of deodorized kerosene to prepare a 0.025% (w/v) oil solution.
Ten adult female common mosquitoes (Culex pipens pallens) were released in a cubic glass chamber having each side of 70 cm. The oil solution of the compound of the present invention (1) and (4) was sprayed into the chamber through a small window on the side of the chamber using a spraying gun at a pressure of 0.9 kg/cm^2. One minutes after spraying, the number of knocked-down mosquitoes was counted and a knock-down ratio was determined. A knocked-down ratio was calculated by the following equation. Knocked-down ratio(%)=(Number of knocked-down mosquitoes/Number of test mosquitoes)×100

[4] = test system: houseflies (Musca domestica); test: Test Example 3: oil solution spray knock-down test on houseflies in glass chamber; assay type: in vivo; settings: adult Musca domestica, 0.7 ml of 0.025% (w/v) oil solution sprayed into 70 cm cubic glass chamber
Procedure: Zero point zero two five (0.025) part of the compound of the present invention (1) and (4) was dissolved in 10 parts of isopropyl alcohol, and the solution was mixed with […] parts of deodorized kerosene to prepare a 0.025% (w/v) oil solution.
Ten adult houseflies (Musca domestica) were released in a cubic glass chamber having each side of 70 cm, and 0.7 ml of the oil solution of the compound of the present invention (1) and (4) was sprayed into the chamber through a small window on the side of the chamber using a spraying gun at a pressure of 0.9 kg/cm^2. Five minutes after spraying, the number of knocked-down flies was counted and a knock-down ratio was determined. A knocked-down ratio was calculated by the following equation. Knocked-down ratio(%)=(Number of knocked-down flies/Number of test flies)×100

[5] = test system: American cockroaches (Periplaneta Americana); test: Test Example 7: oil solution spray knock-down test on American cockroaches; assay type: in vivo; settings: adult American cockroaches, 1.5 ml of 0.1% (w/v) oil solution sprayed, repeated twice
Procedure: as §1
as §2, with “Three minutes after spraying,” for “After a prescribed time,”

## C#CCn1c(C)nn(COC(=O)[C@@H]2[C@@H](C=C(C#N)SCC)C2(C)C)c1=O (relative stereo) [compound of the present invention (5), 3-methyl-5-oxo-4-(2-propynyl)-4,5-dihydro-[1,2,4]triazolylmethyl=(1R)-trans-3-[(1EZ)-2-cyano-2-(ethylthio)ethenyl]-2,2-dimethylcyclopropane carboxylate]
[1]
  Knock-down ratio (%) 2 minutes after spraying: 90%

## C#CCN1CC(=O)N(COC(=O)[C@@H]2[C@H](/C=C(/C#N)OC)C2(C)C)C1=O [comparative compound (1), 2,5-dioxo-3-(2-propynyl)imidazolidinylmethyl=(1R)-cis-3-((Z)-2-cyano-2-methoxyethenyl)-2,2-dimethylcyclopropane carboxylate, reference compound]
[2]
  Knock-down ratio (%) 2 minutes after spraying: 42%

## C#CCn1c(C)nn(COC(=O)[C@@H]2[C@@H](C=C(C)C)C2(C)C)c1=O [comparative compound (2), 3-methyl-5-oxo-4-(2-propynyl)-4,5-dihydro-[1,2,4]triazolylmethyl=(1R)-trans-3-(2-methyl-1-propenyl)-2,2-dimethylcyclopropane carboxylate, reference compound]
[2]
  Knock-down ratio (%) 2 minutes after spraying: 33%

## C#CCn1c(C)nn(COC(=O)[C@@H]2[C@@H](C=C(C#N)SC)C2(C)C)c1=O [compound of the present invention (1), 3-methyl-5-oxo-4-(2-propynyl)-4,5-dihydro-[1,2,4]triazolylmethyl=(1R)-trans-3-[(1EZ)-2-cyano-2-(methylthio)ethenyl]-2,2-dimethylcyclopropane carboxylate]
[3]
  Knock-down ratio (%) 1 minutes after spraying: 95%
[4]
  Knock-down ratio (%) 5 minutes after spraying: 80%
[5]
  Knock-down ratio (%) 3 minutes after spraying: 100%
[2]
  Knock-down ratio (%) 2 minutes after spraying: 100%
[1]
  Knock-down ratio (%) 2 minutes after spraying: 100%

## C#CCn1c(C)nn(COC(=O)[C@@H]2[C@@H](/C=C(\C#N)SC)C2(C)C)c1=O [compound of the present invention (2), 3-methyl-5-oxo-4-(2-propynyl)-4,5-dihydro-[1,2,4]triazolylmethyl=(1R)-trans-3-[(1E)-2-cyano-2-(methylthio)ethenyl]-2,2-dimethylcyclopropane carboxylate]
[5]
  Knock-down ratio (%) 3 minutes after spraying: 100%
[2]
  Knock-down ratio (%) 2 minutes after spraying: 92%
[1]
  Knock-down ratio (%) 2 minutes after spraying: 100%
other
  melting point: 104 to 105 °C

## C#CCn1c(C)nn(COC(=O)[C@@H]2[C@@H](C=C(C#N)SCC)C2(C)C)c1=O [compound of the present invention (3), 3-methyl-5-oxo-4-(2-propynyl)-4,5-dihydro-[1,2,4]triazolylmethyl=(1R)-trans-3-[(1EZ)-2-cyano-2-(ethylthio)ethenyl]-2,2-dimethylcyclopropane carboxylate]
[1]
  Knock-down ratio (%) 2 minutes after spraying: 100%

## C#CCn1c(C)nn(COC(=O)[C@@H]2[C@@H](/C=C(\C#N)SCC)C2(C)C)c1=O [compound of the present invention (4), 3-methyl-5-oxo-4-(2-propynyl)-4,5-dihydro-[1,2,4]triazolylmethyl=(1R)-trans-3-[(1E)-2-cyano-2-(ethylthio)ethenyl]-2,2-dimethylcyclopropane carboxylate]
[3]
  Knock-down ratio (%) 1 minutes after spraying: 100%
[4]
  Knock-down ratio (%) 5 minutes after spraying: 80%
[5]
  Knock-down ratio (%) 3 minutes after spraying: 100%
[2]
  Knock-down ratio (%) 2 minutes after spraying: 100%
[1]
  Knock-down ratio (%) 2 minutes after spraying: 100%
